Assay results published in patent US20070105810A1, “THERAPEUTICS” (priority 2003, published 2007).
Several values for one entry are separate records, joined by “and”; a condition that tells them apart may be missing. Equal values may be shown once. Entries after “also recorded” stand apart in the source; their conditions may differ. Read-outs that look alike come from different tables or passages of the source.

Key:
[1] = test system: encephalitogenic (MBP-specific GFP) T cells and inflammatory cells in CNS and spleen; assay: Cytofluorometric cell counts in organs of EAE animals; assay type: in vivo, rat
Method: Animals (6 per group, body weight approx. 150 g) were injected i.p. twice per day with either PBS (vehicle control), nicotinic acid (50 μmol/100 g body weight), or BZ 52 (50 μmol/100 g body weight). […] Data are corrected for organ mass and presented as mean±SD from one representative experiment.
Cytofluorometric cell counts of MBP-specific GFP T cells in spleen A and CNS B of BZ194 (500 μmol) and DMSO-treated animals at d 3 after T cell transfer.
Cytofluorometric counts of T cells (CD4/8, abTCR), monocytes/macrophages (CD11b), dendritic cells (CD11c), B cells (OX33/CD45RA) and LFA-1+ (CD11a) and MHC class II+ (OX-6) cells in EAE lesions 4 days after T cell transfer after BZ194 (5 d, 500 μmol, blue bars) or vehicle (DMSO, magenta bars).
Single cell suspensions from organs were prepared as described previously (Flügel et al. 2001, Immunity). TGFP cells were sorted immediately after cell preparation in PBS containing 2% glucose at 4° C. using FACS Vantage (Becton Dickinson) or MoFlo sorter (Cytomation Bioinstruments, Freiburg, Germany). Cytofluorometric analysis was performed with FACS-Calibur operated by Cell Quest software (Becton Dickinson). The following monoclonal antibodies were used for surface membrane analysis: W3/25 (anti-CD4), OX33 (CD45RA, B cells, both from Serotec, Düsseldorf, Germany), R73 (abTCR), OX-6 (rat MHC class II), OX-40 antigen (CD134), OX-39 (CD25, IL-2Ra chain), CD8a, CD8b, CD11a (LFA-1a), CD11b (integrin aM chain), CD11b/c (OX42), CD11c (integrin aX chain) (all Becton Dickinson, Heidelberg, Germany). Allophycocyanin-labeled anti-mouse antibody (Invitrogen, Karlsruhe, Germany) was used as secondary antibody.

[2] = test system: myelin-basic protein (MBP) specific, CD4-positive rat T cell blasts; assay: In vitro toxicity assay on T cell blasts; assay type: cell-based
Method: Resting MBP-GFP Tcells were plated in 96-wells (5×10^4/well). Substances to test were added at different concentration to the cells and incubated for 1 h.
Cells stimulated by the addition of thymocytes (1.5×10^6/well) and MBP.
Absolute numbers of MBP-GFP T cells were determined by quantitative cytofluorometrical analysis after 24 and 48 hours (FACS-Calibur BektonDickinson).
Activated MBP-GFP Tcells were also incubated with different concentration of substances to test and absolute numbers of MBP-GFP T cells were determined by quantitative cytofluorometrical analysis after 24 and 48 hours (FACS-Calibur BektonDickinson).
(§1) Cells were stimulated in presence of MBP-pulsed irradiated APCs and increasing concentrations of BZ194. After 48 h cells were collected for cytofluorometric cell count A and RNA extraction was performed for quantitative PCR analysis (IL2) B. Effect of BZ194 on pre-activated T cell blasts C. Amplification of MBP-specific T cells which had been incubated before in the presence of DMSO or 0.5 mM or 1 mM BZ194 D.

[3] = test system: myelin-basic protein (MBP) specific, CD4-positive rat T cells; assay: In vitro proliferation assay (rat encephalitogenic T cells); assay type: cell-based; conditions: for IC50: Rattus norvegicus, CD4 positive, 3H-thymidine incorporation; for proliferation: T-lymphocytes, summary statement
Method: A more downstream event of T cell activation was analyzed in myelin-basic protein (MBP) specific, CD4-positive rat T cells. These cells can be driven into proliferation by MBP presented by irradiated thymocytes or by the mitogen concanavalin A (ConA).
Resting MBP-GFP T cells were plated in 96-wells (5×10^4 well) and stimulated by the addition of thymocytes (1.5×10^6/well) and MBP ([…]) or ConA (1.25 μg/ml), respectively.
After 2 days 3H-thymidine (Amersham Biosciences) was added to the activated cells (final concentration 4 μCi/ml); after 16 h of incubation 3H-thymidine incorporation was measured (Matrix 9600-Direct Beta Counter Packad).
as §1
TMBP-GFP cells were co-cultured for 48 h in 96well plates (in DMEM 1% rat serum) with APCs in presence of specific antigen ([…]) or without. Amplification of TMBP-GFP cells was measured by cytofluorometry as described (Kawakami et al. 2005, J.I.). Their numbers were determined in relation to a known absolute number of added phycoerythrin-labeled plastic beads (Becton-Dickinson). The amplification rate was calculated in relation to the GFP+T cell numbers at day 0. Alternatively, [^3H]dT (2 Ci/mmol; Amersham-Buchler) incorporation was used to evaluate proliferation. The radioactive label present in the different cultures was determined as described (Flügel et al., 2001, Immunity)

[4] = test system: transfer experimental autoimmune encephalomyelitis (EAE) in Lewis rats; assay: Transfer experimental autoimmune encephalomyelitis (EAE); assay type: in vivo, Lewis rat
Description: Transfer of MBP-specific CD4-positive T cells was used at day 0 to induce experimental autoimmune encephalomyelitis (EAE) in Lewis rats. Animals injected with PBS (vehicle) or nicotinic acid (control compound with structural similarities to BZ52) developed severe paralysis of tail and rear legs due to the inflammation. Clinical symptoms started day 3.5 and reached their maxima day 4 to 6 (or 6.5). Between day 3.5 and day 6, no difference between PBS and nicotinic acid was observed, whereas a beneficial effect of BZ52 was visible (FIG. 14).
Animals (6 per group, body weight approx. 150 g) were injected i.p. twice per day with either PBS (vehicle control), nicotinic acid (50 μmol/100 g body weight), or BZ 52 (50 μmol/100 g body weight). Clinical scores indicate the degree of paralysis of tail and legs. Data are presented as mean±SD from one representative experiment (n=6).
Animals (6 per group, body weight approx. 150 g) were injected i.p. twice per day with either PBS (vehicle control), nicotinic acid (50 μmol/100 g body weight), or BZ 52 (50 μmol/100 g body weight). […] Data are presented as mean±SD from one representative experiment (n=6).
5×10^6 activated MBP specific-GFP Tcells were transferred i.v. into recipient Lewis rats. Clinical EAE was graded in five scores: 0.5, loss of tail tonus; 1, tail paralysis; 2, gait disturbance; 3, hind limb paralysis; 4, tetraparesis; 5, death.
Animals' weight was measured twice a day.
In order to analyze the effect of BZ194 on encephalitogenic T cells during the effector phase of EAE we used retrovirally transduced MBP-specific T cells expressing the marker gene green fluorescent protein (TMBP-GFP cells).
Animals were treated for 5 d intraperitoneally with 500 μmol BZ194 or vehicle (DMSO).

[5] = 500 μmol BZ194 i.p. for 5 d, mean±SD, Experiments I-III

Compound | number of encephalitogenic T cells ([1]; day 4 post transfer, 50 μmol/100 g i.p. twice per day) | decrease of number of CNS-infiltrating encephalitogenic T cells ([1]; day 4 post transfer, 50 μmol/100 g i.p. twice per day, one animal per group) | number of T cell blasts ([2]; BZ52 up to 500 μM, 48 h, non-proliferating cells) | IC50 ([3]; light or radiation study, MBP presented by irradiated thymocytes, read-out: IC50, MBP mediated proliferation) [µM] | IC50 ([3]; ConA 1.25 μg/ml, read-out: IC50, ConA mediated proliferation) [µM] | proliferation [3] | decrease in body weight ([4]; 50 μmol/100 g body weight i.p. twice per day) | clinical symptoms (clinical score) vs PBS ([4]; 50 μmol/100 g body weight i.p. twice per day, day 3.5 to day 6) | recruitment of T cells, B cells, macrophages and dendritic cells into the CNS ([1]; 4 days after T cell transfer, BZ194 5 d, 500 μmol) | infiltration of MBP-specific T cells into the CNS ([1]; spinal cord, three days after T cell transfer, BZ194 500 μmol) | distribution of TMBP-GFP cells in spleen ([1]; three days after T cell transfer, BZ194 500 μmol) | amplification of pre-activated MBP-specific T cells ([2]; in the presence of BZ194) | T cell proliferation ([3]; MBP-pulsed irradiated APCs, increasing concentrations of BZ194, 48 h) | proliferative response towards MBP challenge ([3]; after foregoing incubation with 0.5 mM or 1 mM BZ194) | viability and reactivity of TMBP-GFP cells ([3]; cells isolated ex vivo from BZ194-treated animals, challenge with MBP (not shown)) | Max. body weight loss (%) [4, 5] | Max. clinical score [4, 5] | clinical EAE (clinical score) ([4]; intraperitoneal BZ194, EAE by i.v. transfer of 5×10^6 TMBP-GFP cells)
CCCCN(CCCC)C(=O)C[n+]1cccc(C(=O)O)c1 [BZ52, 3-Carboxy-1-dibutylcarbamoylmethyl-pyridinium] | reduced significantly | about 50% | did not much reduce | ~500 | ~100 | efficiently inhibited | less pronounced decrease | a less rapid increase of symptoms, a decreased maximum score and a more rapid decline of clinical symptoms | – | – | – | – | – | – | – | – | – | –
CCCCCCCCNC(=O)C[n+]1cccc(C(=O)O)c1.[Br-] [BZ194, 3-Carboxy-1-Octylcarbamoylmethyl-Pyridinium] | – | – | – | – | – | efficiently inhibited | – | – | clearly diminished | reduced; also recorded: seemed to interfere | accumulated in the spleen | not influenced | anti-proliferative effect; also recorded: dose dependently suppressed | did not block | remained viable and fully reactive | 8 ± 1.6% and 10 ± 4.4% and 9 ± 4.3% | 1.6 ± 0.5 and 1.4 ± 0.8 | suppressed; also recorded: significantly ameliorated
